# Patent publication US6972291B2, “Method for reducing food intake” (priority 2002, dated 2005)
# Where a name gives a salt, the structure may show the parent alone. Read-outs that look alike come from different tables or passages of the source.
# Tests used:
# [1] = system: food or carbohydrate craving in patients; test: Low-dose naltrexone patient study: subjective naltrexone efficacy rating (zero to ten) on food or carbohydrate craving; format: in vivo, human; set-up: key to naltrexone efficacy rating: 0 = no benefit on craving, 10 = no food/carbohydrate craving; settings: scale zero to ten
# Excerpt: Fifty mg naltrexone tablets (REVIA) were ground, mixed with lactose and dispensed at lower doses into capsules by a compounding chemist according to standard methods in doses indicated in the following examples.
# (§1) For each patient described below, the patient was given an initial dose and the dose was then tailored to the patient. The dose of naltrexone was lowered when the patient experienced side effects, including headaches, nausea and/or difficulty concentrating on complex tasks, or if naltrexone is inadequately effective at a higher dose. […] Although “final” values are provided, the study continues unless termination is indicated. The following patients, as well as additional patients are currently being studied. All patients were treated for at least two months, unless released from the study due to adverse effects that were not relieved by reducing the dosage of naltrexone.
# The “rating” of naltrexone efficacy is a subjective scale of zero to ten. A value of zero means that the patient experiences no beneficial effects upon food or carbohydrate craving when taking naltrexone. A value of ten means that the patient experiences no food or carbohydrate craving after taking naltrexone, and can maintain control even when a tantalizing carbohydrate-laden treat, such as a hot buttered roll, a cookie or ice cream, is placed in front of the patient, even when the patient is hungry. For diabetics, a value of eight or greater is considered a success. In contrast, for obese, non-diabetics, a value of six or greater is considered a success because carbohydrates need to be controlled, but not as diligently controlled as with diabetics.
# Of note, one patient who snacked between dinner and bedtime also had insomnia. […] Unless otherwise noted, all patients are diabetics. Patients who experienced a naltrexone efficacy rating of greater than or equal to 8 also experienced a suppression of both carbohydrate craving and any tendency to overeat, in general.
# patients = test: Side effects of low-dose naltrexone therapy in patients; format: in vivo, human
# Excerpt: These effects included tiredness, headache, nausea, impaired libido, diminished pleasure in daily activities and difficulty concentrating on complex tasks. Such problems nearly always occur after the first dose or a dosage increase. When they occur, the dose of naltrexone must either be lowered or naltrexone therapy must be discontinued if lower doses are ineffective.
# Another side effect that some patients relate is a feeling of mental confusion that impairs concentration upon difficult tasks. Like a headache, this effect is unacceptable. For this reason, a patient typically is started on a very low dose—for example, and without limitation, 1 mg capsules—and the amount of each dose is then increased or decreased until an effective level is reached at which the patient experiences no side effects.
# as §1
# [2] = system: carbohydrate craving in patients; test: Timing of naltrexone action on carbohydrate craving in patients (onset, duration); format: in vivo, human
# Procedure: Naltrexone is preferably administered to act at the time(s) of day when overeating or carbohydrate craving occurs. Naltrexone usually starts working about 3–4 hours after it is taken and continues to work for about six hours, but this timing varies from person to person. If a patient overeats only at supper, they might take a dose about 3–4 hours prior to that meal. If their problem is from after lunch until bedtime, they might take a dose after breakfast, after lunch, and before or after supper, all by trial and error, to find the optimal timing. Different amounts of naltrexone also may be administered at different times, depending on a patient's response to each dosage at each time. If the patient experiences carbohydrate cravings at all waking hours, the patient might take a slow-release (extended-release) or timed-release dose at bedtime that would ideally cover the next morning, or take a dose in the middle of the night if the patient awakens to urinate, as many do. The patient then might take additional doses upon arising, before lunch, mid-afternoon, and after supper or a slow-release dose upon arising. […] Finding what works for any given patient's particular pattern of overeating or carbohydrate craving is trial and error. If a patient's problem is only at dinner when they eat out, then they might take the naltrexone about 3–4 hours before the planned dinnertime only on such days.
# [3] = system: food or carbohydrate craving in patients; test: Low-dose naltrexone patient study: subjective naltrexone efficacy rating (zero to ten) on food or carbohydrate craving; format: in vivo, human; settings: obese person
# squirrel monkeys = settings: cited from earlier work
# animals = settings: cited from earlier work
# [4] = system: eating behavior in humans; settings: cited from earlier work
# [5] = patients, varies from person to person
compound,measurement,setting,value
"O=C1CC[C@@]2(O)[C@H]3Cc4ccc(O)c5c4[C@@]2(CCN3CC2CC2)[C@H]1O5 [naltrexone HCl, naltrexone hydrochloride]",naltrexone efficacy rating,"[1]; Patient 1, diabetic, 207.5 lbs, 12.5 mg twice daily tailored to 1 mg three times daily",≥ 8
same,naltrexone efficacy rating,"[1]; Patient 2, diabetic, 256 lbs, 12.5 mg/d tailored to 12.5 mg four times per day",7 to 8
same,naltrexone efficacy rating,"[1]; Patient 3, diabetic, 252 lbs, 12.5 mg when eating out tailored to 2 mg twice daily",≥ 8
same,naltrexone efficacy rating,"[1]; Patient 4, non-diabetic patient, 183 lbs, 8 mg twice daily adjusted to 25 mg three times daily",4
same,naltrexone efficacy rating,"[1]; Patient 5, diabetic, 162 lbs, 8 mg after lunch, unchanged",10
same,naltrexone efficacy rating,"[1]; Patient 6, diabetic, 204 lbs, 6 mg twice daily tailored to 1 mg twice a day",10
same,naltrexone efficacy rating,"[1]; Patient 7, polycystic ovarian syndrome, 170 lbs, 6 mg three times daily tailored to 36 mg/d",8 to 9
same,naltrexone efficacy rating,"[1]; Patient 8, diabetic, 182 lbs, 8 mg after lunch tailored to 8 mg four times daily",9.5
same,naltrexone efficacy rating,"[1]; Patient 9, diabetic, 106 lbs, 25 mg/d tailored to 50 mg/d, low doses not tried",< 8
same,naltrexone efficacy rating,"[1]; Patient 10, diabetic, 161 lbs, 12.5 mg three times daily adjusted to 50 mg three times daily, doses less than 12.5 mg not tried",zero
same,naltrexone efficacy rating,"[1]; Patient 11, diabetic, 183 lbs, 8 mg/d tailored to 32 mg/d",≥ 8
same,naltrexone efficacy rating,"[1]; Patient 12, diabetic, 114 lbs, 4 mg after lunch tailored to 4.5 mg",zero
same,naltrexone efficacy rating,"[1]; Patient 13, diabetic, 208 lbs, 5 mg three times per day tailored to 8 mg twice per day",8.5
same,carbohydrate craving rating,"[1]; Patient 14, diabetic, 226.5 lbs, 0.1 mg nine times per day adjusted to 50 mg three times daily",zero
same,naltrexone efficacy rating,"[1]; Patient 15, diabetic, 184.25 lbs, 0.75 mg twice daily tailored to 0.25 mg twice daily",10
same,side effects,"patients; Patient 1, even at the final dosage (1 mg three times daily), discontinued treatment",headaches
same,side effects,"patients; Patient 4, 8 mg twice daily adjusted to 25 mg three times daily, discontinued treatment",headaches
same,side effects,"patients; Patient 12, even at the final dosage (4.5 mg), discontinued treatment",headaches
same,side effects,"patients; Patient 15, final dose 0.25 mg twice daily",not at the final dose
same,side effects,"patients; Patient 15, initial dose 0.75 mg twice daily","decreased libido, confusion, diminished animation and excessive loss of appetite"
same,side effects,"patients; obese person, 3 mg dose",no headache
same,side effects,"patients; obese person, dose of 2 mg",no headache
same,side effects,"patients; obese person, one 4 mg capsule",headache
same,side effects,patients; one patient who snacked between dinner and bedtime and had insomnia,made them tired
same,time covered by one small dose,[2]; certain patients,more than 24 hours
same,time at which efficacy is apparent,"[2]; patients, low dose of naltrexone",apparent by the second day of treatment
same,time naltrexone continues to work,[2]; [5],about six
same,time until naltrexone starts working after it is taken,[2]; [5],3 to 4 h
same,effect on cravings,[3]; 3 mg dose,cravings were curbed
same,effect on appetite,[3]; dose of 2 mg,appetite was unaffected
same,anorexic effect,squirrel monkeys; doses of 0.22 mg/kg,slight anorexic effect
same,anorexic effect,squirrel monkeys; higher doses than 0.22 mg/kg,the anorexic effect was greater
same,effect on body weight,animals,reduces body weight in animals without evidence of drug tolerance
same,risk,[4]; DeZwaan et al. review,potential for liver damage
same,effect on sweet cravings,"[4]; humans, Yeomans II, 50 mg, compared to other food categories",sweet cravings were not reduced
same,effect on binge eating,"[4]; humans, one long-term study, 100 mg doses",binge eating was affected long-term
same,effect on food intake,"[4]; humans, single-dose studies, short-term doses of 50 mg or greater",affect food intake
